The values that follow come from US20230357233A1, “HETEROARYL COMPOUNDS, PREPARATION METHODS AND USES THEREOF” (INVENTISBIO CO., LTD., priority 2020, published 2023).

Structures are written as SMILES.

For one test, the target named is Ba/F3_KRAS^G12D cells (Homo sapiens, UniProt P01116, G12D, cells depend on it). Nature of the test: Ba/F3 KRAS^G12D cell proliferation assay (cell-titer Glo). It is filed as cell-based. As to conditions: cell growth inhibition, treated with the compounds for 3 days, read-out: BaF3_KRAS^G12D IC50.
Sequence of Ba/F3_KRAS^G12D cells (P01116 whole entry G12D): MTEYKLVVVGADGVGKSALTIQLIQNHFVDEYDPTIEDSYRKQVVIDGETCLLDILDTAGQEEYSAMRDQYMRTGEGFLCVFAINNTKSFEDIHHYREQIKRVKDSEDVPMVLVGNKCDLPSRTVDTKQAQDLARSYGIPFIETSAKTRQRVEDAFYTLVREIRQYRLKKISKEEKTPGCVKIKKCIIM
The target in test [1] is recombinant human KRAS^G12D protein (Homo sapiens, UniProt P01116, G12D). Briefly: Temperature-dependent Fluorescence (TdF) KRAS^G12D protein binding assay. As to conditions: 6 μM KRAS^G12D Protein, 10 μM compound, Sypro Orange; Kd calculated from fluorescent shift. An outline of the steps:
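Sypro Orange thermal-shift assay, heating from 30 to 95 °C with readings every 0.4 °C (ex 470/em 570 nm). Binding is gauged as ΔTm with versus without compound. Kd is calculated from the degree of the unfolding-temperature shift.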

Sequence of recombinant human KRAS^G12D protein (P01116 1-188 isoform P01116-2 G12D): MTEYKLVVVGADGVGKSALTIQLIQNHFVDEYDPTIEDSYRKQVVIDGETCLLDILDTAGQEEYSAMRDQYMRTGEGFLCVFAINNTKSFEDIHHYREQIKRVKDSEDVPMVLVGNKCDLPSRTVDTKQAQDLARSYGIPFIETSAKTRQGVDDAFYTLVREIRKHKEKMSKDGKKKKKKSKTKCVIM

With `C#Cc1c(F)ccc2cc(O)cc(-c3cc4nc(OC[C@@]56CCCN5C[C@H](F)C6)nc(N5CC6CCC(C5)N6)c4c(C)n3)c12` [Compound 131], on Ba/F3_KRAS^G12D cells, the GI50 was less than 500 nM. Besides, in test [1], the equilibrium dissociation constant (Kd) (commonly the equilibrium constant for the complex coming apart) is no more than 500 nM.
For the molecule `C#Cc1c(F)ccc2cc(O)cc(-c3nc(Cl)c4c(N5CC6CCC(C5)N6)nc(OC[C@@]56CCCN5C[C@H](F)C6)nc4c3F)c12` [Compound 132], on Ba/F3_KRAS^G12D cells, the GI50 is less than 500 nM. In test [1], the Kd is no more than 500 nM.
Consider `CCc1cccc2cc(O)cc(-c3nc(O)c4c(N5CC6CCC(C5)N6)nc(OC[C@@]56CCCN5C[C@H](F)C6)nc4c3F)c12` [Compound 133], for which the GI50 at Ba/F3_KRAS^G12D cells was 500 to 5000 nM. Further, the Kd in test [1] is no more than 500 nM.
The matching figures for `C#Cc1c(F)ccc2cc(O)cc(-c3nc(C)c4c(N5CC6CCC(C5)N6)nc(OC[C@@]56CCCN5C[C@H](F)C6)nc4c3Cl)c12` [Compound 134]: less than 500 nM and no more than 500 nM.
Taken in the same sequence, the figures for `C#Cc1c(F)ccc2cc(O)cc(-c3nc(OC)c4c(N5CC6CCC(C5)N6)nc(OC[C@@]56CCCN5C[C@H](F)C6)nc4c3F)c12` [Compound 135] were less than 500 nM and no more than 500 nM.
As to `CCc1cccc2cc(O)cc(-c3nc(C(F)F)c4c(N5CC6CCC(C5)N6)nc(OC[C@@]56CCCN5C[C@H](F)C6)nc4c3F)c12` [Compound 136], the GI50 on Ba/F3_KRAS^G12D cells was less than 500 nM. Moreover, in test [1], the Kd is no more than 500 nM.
Regarding `CCc1c(F)ccc2cc(O)cc(-c3nc(C)c4c(N5CC6CCC(C5)N6)nc(OC[C@@]56CCCN5C[C@H](F)C6)nc4c3F)c12` [Compound 137], the GI50 at Ba/F3_KRAS^G12D cells is less than 500 nM. Besides, the Kd in test [1] is no more than 500 nM.
`CCc1c(F)ccc2cc(O)cc(-c3nc(Cl)c4c(N5CC6CCC(C5)N6)nc(OC[C@@]56CCCN5C[C@H](F)C6)nc4c3F)c12` [Compound 138]: the GI50 on Ba/F3_KRAS^G12D cells was less than 500 nM. Besides, the Kd in test [1] was no more than 500 nM.
The matching figures for `CCc1c(F)ccc2cc(O)cc(-c3nc(OC)c4c(N5CC6CCC(C5)N6)nc(OC[C@@]56CCCN5C[C@H](F)C6)nc4c3F)c12` [Compound 139]: less than 500 nM and no more than 500 nM.
As for `C#Cc1c(F)ccc2cc(O)cc(-c3nc(OCC)c4c(N5CC6CCC(C5)N6)nc(OC[C@@]56CCCN5C[C@H](F)C6)nc4c3F)c12` [Compound 141], at Ba/F3_KRAS^G12D cells, the GI50 is less than 500 nM. In test [1], the Kd was no more than 500 nM.
For `COc1c(F)ccc2cc(O)cc(-c3nc(OC)c4c(N5CC6CCC(C5)N6)nc(OC[C@@]56CCCN5C[C@H](F)C6)nc4c3F)c12` [Compound 147], the GI50 on Ba/F3_KRAS^G12D cells is less than 500 nM. In addition, in test [1], the equilibrium dissociation constant (Kd) was no more than 500 nM.
The matching figures for `CCOc1c(F)ccc2cc(O)cc(-c3nc(OC)c4c(N5CC6CCC(C5)N6)nc(OC[C@@]56CCCN5C[C@H](F)C6)nc4c3F)c12` [Compound 148]: less than 500 nM and no more than 500 nM.
Consider `C#Cc1c(F)ccc2cc(O)cc(-c3nc(Cl)c4c(N5CC6CCC(C5)N6)nc(OC[C@@H]5CCCN5C)nc4c3F)c12` [Compound 159], for which the GI50 on Ba/F3_KRAS^G12D cells is less than 500 nM. In addition, in test [1], the dissociation constant (Kd) is no more than 500 nM.
Taken in the same sequence, the figures for `C#Cc1c(F)ccc2cc(O)cc(-c3nc(OC)c4c(N5CC6CCC(C5)N6)nc(OC[C@@H]5CCCN5C)nc4c3F)c12` [Compound 160] were less than 500 nM and no more than 500 nM.
For the molecule `C#Cc1c(F)ccc2cc(N)cc(-c3nc(OC)c4c(N5CC6CCC(C5)N6)nc(OC[C@@]56CCCN5C[C@H](F)C6)nc4c3F)c12` [Compound 163], the GI50 at Ba/F3_KRAS^G12D cells was less than 500 nM. In test [1], the Kd is no more than 500 nM.
`C#Cc1c(F)ccc2cc(O)cc(-c3nc(C(F)F)c4c(N5CC6CCC(C5)N6)nc(OC[C@@]56CCCN5C[C@H](F)C6)nc4c3F)c12` [Compound 165]: on Ba/F3_KRAS^G12D cells, the GI50 was less than 500 nM. Further, the dissociation constant Kd in test [1] is no more than 500 nM.
As for `CCc1c(F)ccc2cc(O)cc(-c3nc(C(F)F)c4c(N5CC6CCC(C5)N6)nc(OC[C@@]56CCCN5C[C@H](F)C6)nc4c3F)c12` [Compound 166], the GI50 at Ba/F3_KRAS^G12D cells was less than 500 nM. Also, in test [1], the Kd is no more than 500 nM.
For `C#Cc1c(F)ccc2cc(O)cc(-c3nc(OC(C)C)c4c(N5CC6CCC(C5)N6)nc(OC[C@@]56CCCN5C[C@H](F)C6)nc4c3F)c12` [Compound 171], the GI50 on Ba/F3_KRAS^G12D cells is less than 500 nM. Also, in test [1], the Kd is no more than 500 nM.
The matching figures for `CCOc1nc(-c2cc(O)cc3ccc(F)c(Cl)c23)c(F)c2nc(OC[C@@]34CCCN3C[C@H](F)C4)nc(N3CC4CCC(C3)N4)c12` [Compound 173]: less than 500 nM and no more than 500 nM.
Regarding `C#Cc1c(F)ccc2cc(O)cc(-c3nc(OC)c4c(N5CC6CCC(C5)N6)nc(OC[C@]56CCCN5[C@@H](COC(=O)N(C)C)CC6)nc4c3F)c12` [Compound 176], the GI50 at Ba/F3_KRAS^G12D cells was less than 500 nM. The Kd in test [1] was no more than 500 nM.
Taken in the same sequence, the figures for `C#Cc1c(F)ccc2cc(O)cc(-c3nc(OC(C)C)c4c(N5CC6CCC(C5)N6)nc(OC[C@@H]5CCCN5C)nc4c3F)c12` [Compound 195] were less than 500 nM and no more than 500 nM.
On to `C#Cc1c(F)ccc2cc(O)cc(-c3nc(OC(C)C)c4c(N5CC6CCC(C5)N6)nc(OC[C@@H]5C[C@@H](F)CN5C)nc4c3F)c12` [Compound 197], for which, at Ba/F3_KRAS^G12D cells, the GI50 was less than 500 nM. Further, in test [1], the dissociation constant Kd is no more than 500 nM.
